Source: patent US20240132513A1, “BENZAZEPINE DERIVATIVES, COMPOSITIONS, AND METHODS FOR TREATING COGNITIVE IMPAIRMENT” (AGENEBIO, INC., priority 2022, published 2024)
Entries after “also recorded” stand apart in the source; their conditions may differ.

Legend:
aged-impaired (AI) rats [1] = test: Morris water maze behavioral task; assay type: in vivo, rat; details: 100 μg ICV
Procedure: The effects of 6,6 dimethyl-3-(3-hydroxypropyl)thio-1-(thiazol-2-yl)-6,7-dihydro-2-benzothiophen-4(5H)-one on the in vivo spatial memory retention of aged-impaired (AI) rats were assessed in a Morris water maze behavioral task. A water maze is a pool surrounded with a novel set of patterns relative to the maze.
Cognitively impaired aged rats were implanted unilaterally with a cannula into the lateral ventricle. Stereotaxic coordinates were 1.0 mm posterior to bregma, 1.5 mm lateral to midline, and 3.5 mm ventral to the skull surface. After about a week of recovery, the rats were pre-trained in a water maze for 2 days (6 trials per day) to locate a submerged escape platform hidden underneath the surface of the pool, in which the escape platform location varied from day to day. No intracerebroventricular (ICV) infusion was given during pre-training.
After pre-training, rats received ICV infusion of either 100 μg 6,6 dimethyl-3-(3-hydroxypropyl)thio-1-(thiazol-2-yl)-6,7-dihydro-2-benzothiophen-4(5H)-one (n=6) in 5 μl DMSO or vehicle DMSO (n=5) 40 min prior to water maze training and testing. Training consisted of 8 trials per day for 2 days where the hidden escape platform remained in the same location. Rats were given 60 seconds to locate the platform with a 60 seconds inter-trial interval. The rats were given a probe test (120 seconds) 24 hr. after the end of training where the escape platform was removed. During the training, there were 4 blocks, where each block had 4 training trials.
During a test trial 24 hr after training, the escape platform was removed. The search/swim pattern of the rats was used to measure whether the rats remember where the escape platform was located during pre-trial training in order to test for the long-term memory of the rats. In this trial, “target annulus” is a designated area 1.5 times the size of the escape platform around the area where the platform was located during pre-trial training. “Opposite annulus” is a control area of the same size as the size of the target annulus, which is located opposite to the target annulus in the pool. If the rats had good long-term memory, they would tend to search in the area surrounding the location where the platform was during the pre-trial training (i.e., the “target” annulus; and not the “opposite” annulus). “Time in annulus” is the amount of time in seconds that the rat spent in the target or opposite annulus area. “Number (#) of crossings” in annulus is the number of times the rat swam across the target or opposite annulus area.

aged-impaired (AI) rats [2] = test: Radial Arm Maze (RAM) behavioral task, spatial memory retention; assay type: in vivo, rat; details: 3 mg/kg ip, two-hour delay
Procedure: […] RAM behavioral tasks were performed on eight AI rats. All five treatment conditions (vehicle and four dosage levels) were tested on all eight rats.
The RAM apparatus used consisted of eight equidistantly-spaced arms. An elevated maze arm (7 cm width×75 cm length) projected from each facet of an octagonal center platform (30 cm diameter, 51.5 cm height). Clear side walls on the arms were 10 cm high and were angled at […] to form a trough. A food well (4 cm diameter, 2 cm deep) was located at the distal end of each arm. Froot Loops™ (Kellogg Company) were used as rewards. Blocks constructed of Plexiglas™ (30 cm height×12 cm width) could be positioned to prevent entry to any arm. Numerous extra maze cues surrounding the apparatus were also provided.
The AI rats were initially subjected to a pre-training test (Chappell et al. Neuropharmacology 37: 481-487, 1998). The pre-training test consisted of a habituation phase (4 days), a training phase on the standard win-shift task (18 days) and another training phase (14 days) in which a brief delay was imposed between presentation of a subset of arms designated by the experimenter (e.g., 5 arms available and 3 arms blocked) and completion of the eight-arm win-shift task (i.e., with all eight arms available).
In the habituation phase, rats were familiarized to the maze for an 8-minute session on four consecutive days. In each of these sessions, food rewards were scattered on the RAM, initially on the center platform and arms and then progressively confined to the arms. After this habituation phase, a standard training protocol was used, in which a food pellet was located at the end of each arm. Rats received one trial each day for 18 days. Each daily trial terminated when all eight food pellets had been obtained or when either 16 choices were made, or 15 minutes had elapsed. After completion of this training phase, a second training phase was carried out in which the memory demand was increased by imposing a brief delay during the trial. At the beginning of each trial, three arms of the eight-arm maze were blocked. Rats were allowed to obtain food on the five arms to which access was permitted during this initial “information phase” of the trial. Rats were then removed from the maze for 60 seconds, during which time the barriers on the maze were removed, thus allowing access to all eight arms. Rats were then placed back onto the center platform and allowed to obtain the remaining food rewards during this “retention test” phase of the trial. The identity and configuration of the blocked arms varied across trials.
The number of “errors” the AI rats made during the retention test phase was tracked. […]

α5-containing GABAA R = α5-containing GABAA R (Homo sapiens, UniProt P18507+P31644); details: EC20; cited from earlier work
Chain of α5-containing GABAA R (P31644 32-462): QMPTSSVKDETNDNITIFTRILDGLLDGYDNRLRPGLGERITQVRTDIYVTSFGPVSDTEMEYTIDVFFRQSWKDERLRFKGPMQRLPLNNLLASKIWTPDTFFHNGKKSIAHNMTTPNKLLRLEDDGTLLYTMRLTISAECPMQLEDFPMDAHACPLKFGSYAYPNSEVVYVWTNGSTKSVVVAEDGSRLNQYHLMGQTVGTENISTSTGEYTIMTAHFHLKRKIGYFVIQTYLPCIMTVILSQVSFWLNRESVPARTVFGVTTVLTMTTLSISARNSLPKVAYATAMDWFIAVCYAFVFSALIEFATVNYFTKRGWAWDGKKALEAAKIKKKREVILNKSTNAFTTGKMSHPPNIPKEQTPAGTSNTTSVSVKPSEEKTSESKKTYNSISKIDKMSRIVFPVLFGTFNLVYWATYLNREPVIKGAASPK
Chain of α5-containing GABAA R (P28472 26-473 partner): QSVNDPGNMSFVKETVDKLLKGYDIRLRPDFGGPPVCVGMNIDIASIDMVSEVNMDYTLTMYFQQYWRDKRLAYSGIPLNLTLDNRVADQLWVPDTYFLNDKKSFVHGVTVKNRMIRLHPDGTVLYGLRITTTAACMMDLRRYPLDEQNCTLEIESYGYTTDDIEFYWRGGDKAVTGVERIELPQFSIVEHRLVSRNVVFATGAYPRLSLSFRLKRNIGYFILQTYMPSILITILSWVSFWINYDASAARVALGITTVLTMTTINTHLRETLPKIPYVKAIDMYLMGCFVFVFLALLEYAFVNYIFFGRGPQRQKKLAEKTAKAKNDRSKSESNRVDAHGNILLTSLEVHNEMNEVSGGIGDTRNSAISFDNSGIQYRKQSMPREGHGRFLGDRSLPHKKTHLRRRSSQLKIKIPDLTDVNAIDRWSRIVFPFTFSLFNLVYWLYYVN
Chain of α5-containing GABAA R (P18507 40-475): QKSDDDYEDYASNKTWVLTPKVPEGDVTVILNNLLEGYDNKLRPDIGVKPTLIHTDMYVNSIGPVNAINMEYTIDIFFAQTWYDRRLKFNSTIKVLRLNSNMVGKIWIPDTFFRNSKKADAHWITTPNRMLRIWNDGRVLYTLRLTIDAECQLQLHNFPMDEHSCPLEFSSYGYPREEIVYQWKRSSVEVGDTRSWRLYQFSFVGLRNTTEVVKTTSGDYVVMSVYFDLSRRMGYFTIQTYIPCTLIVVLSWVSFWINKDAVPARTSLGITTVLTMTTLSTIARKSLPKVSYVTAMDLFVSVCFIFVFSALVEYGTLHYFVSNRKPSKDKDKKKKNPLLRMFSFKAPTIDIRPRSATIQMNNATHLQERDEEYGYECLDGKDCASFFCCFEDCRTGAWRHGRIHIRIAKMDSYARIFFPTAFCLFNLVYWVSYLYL

GABAA α5 receptor = molecular target: T1, GABAA α5 receptor (Rattus norvegicus, UniProt P19969); test: GABAA α5 receptor occupancy with Ro 15-4513 tracer; assay type: in vivo, Long Evans rats; details: for % RO (L-655,708 Method): young Long Evans rats
T1 construct: from tissue; host or cells: rat brain in vivo; hippocampus versus cerebellum
T1 sequence (P19969 32-464 limits assumed): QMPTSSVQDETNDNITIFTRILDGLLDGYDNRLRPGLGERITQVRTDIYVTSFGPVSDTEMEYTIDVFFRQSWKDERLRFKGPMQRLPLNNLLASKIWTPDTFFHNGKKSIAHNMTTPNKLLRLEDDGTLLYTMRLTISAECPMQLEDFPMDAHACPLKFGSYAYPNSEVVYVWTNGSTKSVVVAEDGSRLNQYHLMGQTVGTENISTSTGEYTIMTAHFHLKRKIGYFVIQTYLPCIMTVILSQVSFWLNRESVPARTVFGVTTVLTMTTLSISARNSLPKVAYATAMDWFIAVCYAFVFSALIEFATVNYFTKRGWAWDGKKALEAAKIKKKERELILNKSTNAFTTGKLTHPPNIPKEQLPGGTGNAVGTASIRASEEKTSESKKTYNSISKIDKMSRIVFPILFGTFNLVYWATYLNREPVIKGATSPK
Excerpt: Food and water were available ad libitum.

[3] = probe test 24 hr after training

| SMILES | time to find the escape platform (aged-impaired (AI) rats [1]; beginning of training (block 1)) | time to find the escape platform (aged-impaired (AI) rats [1]; end of training (block 4)) | number of crossings of target annulus compared to opposite annulus (aged-impaired (AI) rats [1]; [3]) | time in target annulus compared to opposite annulus (aged-impaired (AI) rats [1]; [3]) | average no. of errors ± SEM, retention test (aged-impaired (AI) rats [2]) | memory performance relative to vehicle control (aged-impaired (AI) rats [2]) | α5 in vitro efficacy (α5-containing GABAA R) | % RO (L-655,708 Method) (GABAA α5 receptor; 0.01 mg/kg, i.v.) [%] | % RO (L-655,708 Method) (GABAA α5 receptor; 0.1 mg/kg, i.v.) [%] | % RO (L-655,708 Method) (GABAA α5 receptor; 1 mg/kg, i.v.) [%] | Ro 15-4513 binding in hippocampus (GABAA α5 receptor; 0.01-10 mg/kg, i.v.) | Ro 15-4513 levels/binding in cerebellum (GABAA α5 receptor; 0.01-10 mg/kg, i.v.) | % RO (L-655,708 Method) (GABAA α5 receptor; 10 mg/kg, i.v.) [%] | GABAA α5 receptors occupied (GABAA α5 receptor; at exposures behaviorally active in aged-impaired rats, hippocampus) | ED50 of receptor occupancy, ratio method (GABAA α5 receptor; i.v.) [mg/kg] | receptor occupancy at 10 mg/kg (GABAA α5 receptor; rat, iv, 10 mg/kg) [%] |
| --- | --- | --- | --- | --- | --- | --- | --- | --- | --- | --- | --- | --- | --- | --- | --- | --- |
| CC1(C)CC(=O)c2c(SCCCO)sc(-c3nccs3)c2C1 [6,6 dimethyl-3-(3-hydroxypropyl)thio-1-(thiazol-2-yl)-6,7-dihydro-2-benzothiophen-4(5H)-one] | about 24 seconds | about 9.6 seconds | crossed the “target annulus” more often | spent significantly more time in the target annulus |  |  |  |  |  |  |  |  |  |  |  |  |
| COC(=O)c1c(-c2ccccc2)cnnc1-c1ccccc1 [methyl 3,5-diphenylpyridazine-4-carboxylate] |  |  |  |  | 1.31±0.40 | significantly improved memory performance | +27 | 19.2 | 16.4 | 38.5 | dose-dependently reduced Ro 15-4513 binding in hippocampus; also recorded: blocked the binding of Ro154513 in the hippocampus | without affecting cerebellum levels of Ro 15-4513; also recorded: did not affect binding of Ro15413 in the cerebellum | 110.0 | about 32% | 1.8 | > 90 |
